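48-hour exposure; five concentrations; linearly interpolated endpoints. Abbreviation: GI50, concentration required for 50% inhibition of growth. TGI marks complete inhibition of growth.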
How the values were obtained:
Assay in all cases: NCI-60 cell line screen, 48 h
MDA-MB-435 = tested on: MDA-MB-435
A549 NSCLC = tested on: A549 NSCLC
UO-31 renal = tested on: UO-31 renal
MALME-3M melanoma = tested on: MALME-3M melanoma
SK-MEL-5 melanoma = tested on: SK-MEL-5 melanoma
UACC-257 melanoma = tested on: UACC-257 melanoma
OVCAR-8 ovarian = tested on: OVCAR-8 ovarian
HCT-116 colon = tested on: HCT-116 colon
RXF 393 renal = tested on: RXF 393 renal
OVCAR-3 ovarian = tested on: OVCAR-3 ovarian

Row | SMILES | TGI (MDA-MB-435) | TGI (A549 NSCLC) | TGI (UO-31 renal) | TGI (MALME-3M melanoma) | TGI (SK-MEL-5 melanoma) | TGI (UACC-257 melanoma) | TGI (OVCAR-8 ovarian) | TGI (HCT-116 colon) | GI50 (MDA-MB-435) | GI50 (A549 NSCLC) | GI50 (UO-31 renal) | GI50 (SK-MEL-5 melanoma) | GI50 (UACC-257 melanoma) | GI50 (RXF 393 renal) | TGI (RXF 393 renal) | GI50 (OVCAR-3 ovarian) | TGI (OVCAR-3 ovarian) | GI50 (OVCAR-8 ovarian) | GI50 (HCT-116 colon) | GI50 (MALME-3M melanoma)
1 | O=S(=O)(NC1CCCCC1)c1ccc2c(c1)OCCOCCOCCOCCO2 | > 100 µM | > 100 µM | > 100 µM | > 100 µM | > 100 µM | > 100 µM | > 100 µM | > 100 µM |  |  |  |  |  |  |  |  |  |  |  | 
2 | CCCCCCCCCCCC1=NC(C)(C)CN1C(C)(C)CO | 3.5 µM | 19.6 µM | 8.42 µM |  | 3.3 µM | 3.28 µM | 13.4 µM | 3.06 µM | 1.73 µM | 6.53 µM | 2.03 µM | 1.79 µM | 1.65 µM | 2.26 µM | 4.48 µM | 2.05 µM | 6.2 µM | 3.33 µM | 1.56 µM | 
3 | Cc1ccc(/C=C(\C#N)c2cc3ccccc3n2C)cc1 | 0.334 µM | > 100 µM | > 100 µM |  | > 100 µM | > 100 µM | > 100 µM | > 100 µM | 0.0502 µM | 0.463 µM | 0.853 µM | 0.647 µM | > 100 µM | 0.172 µM | 0.565 µM | 0.361 µM |  | 0.565 µM | 0.361 µM | 
4 | COc1ccc2c(c1)[n+](=O)c(C(=O)c1cccs1)c(C(F)(F)F)n2[O-] | > 50 µM | > 50 µM | 17.6 µM |  | 5.91 µM | 42 µM | > 50 µM | > 50 µM | 12.2 µM | 7.99 µM | 1.83 µM | 1.23 µM | 8.66 µM | > 50 µM | > 50 µM | 2.09 µM | 11.3 µM | 2.79 µM | 12.3 µM | 
5 | O=C(/C=C(\O)C(=O)O)/C=C(\O)c1ccccc1 |  | > 100 µM | > 1 µM | > 100 µM | > 1 µM | > 100 µM | > 100 µM | > 100 µM |  | > 1 µM | > 1 µM | > 1 µM | > 1 µM |  | > 100 µM | > 1 µM | > 46.4 µM |  | > 1 µM | > 100 µM
6 | CN1C(=O)c2ccc3ccccc3c2C1=O | > 100 µM | > 100 µM | > 100 µM |  | > 100 µM | > 100 µM | > 100 µM | > 100 µM |  |  |  |  |  |  | 96.6 µM |  | > 100 µM |  |  | 
7 | O=c1cc(-c2ccccn2)[nH]c2cccc(F)c12 |  | > 100 µM | > 100 µM |  | > 100 µM | > 100 µM | > 100 µM |  |  |  |  |  |  |  | > 100 µM |  | > 100 µM |  |  | 
8 | COc1ccc2c(c1)/C(=C\c1ccncc1)C(=O)N2 | 39.3 µM | 46.4 µM | 19.3 µM |  | 27.6 µM | 18.3 µM | 32.7 µM | 17.8 µM | 6.57 µM | 17.3 µM | 6.73 µM | 13.1 µM | 4.62 µM |  |  | 10.4 µM | 27.5 µM | 10.3 µM | 3.72 µM | 
9 | COc1cc(CNc2nc3c(N)cc(C(F)(F)F)cc3nc2-c2ccccc2)cc(OC)c1OC |  | > 100 µM | 85.5 µM | > 100 µM | > 100 µM | > 100 µM | > 100 µM | > 100 µM |  |  |  |  |  |  | 69.4 µM |  | > 100 µM |  |  | 
10 | C=C1CC(CC)(CCN2C(=O)c3ccccc3C2=O)OC1=O (stereo not drawn) |  | > 100 µM | 36.2 µM | 27.3 µM | 26.1 µM | 27 µM | 36.2 µM | 25.4 µM |  |  |  |  |  |  | 29.9 µM |  |  |  |  | 
11 | COc1ccccc1N=Nc1c(-c2ccccc2)nn(C(=O)CC(=O)Nc2cccc(C)c2)c1-c1ccccc1 |  | > 100 µM | > 100 µM | > 100 µM | 97.8 µM | > 100 µM | > 100 µM | > 100 µM |  |  |  |  |  |  | > 100 µM |  | 53.9 µM |  |  | 
12 | C=CCn1c(=S)sc2c(C(=O)OCC)c3c(C)cc(C)cn3c2c1=O |  | > 100 µM | > 100 µM | > 100 µM | > 100 µM | > 100 µM | > 100 µM | > 100 µM |  |  |  |  |  |  | > 100 µM |  | > 100 µM |  |  | 
13 | CC(C)N(C(=O)c1cccc(C(=O)N(C(C)C)C(C)C)c1)C(C)C |  | > 100 µM | > 100 µM | > 100 µM | > 100 µM | > 100 µM | > 100 µM | > 100 µM |  |  |  |  |  |  |  |  | > 100 µM |  |  | 
14 | COc1ccc(-c2cc(=O)n(-c3nc4ccccc4[nH]3)[nH]2)cc1OC | > 100 µM | 81.9 µM | 18.6 µM |  | 34.9 µM | 61 µM | 63.5 µM | > 100 µM | 3.87 µM | 4.72 µM | 3.2 µM | 4.08 µM | 6.4 µM | 1.24 µM | 11.9 µM | 12.9 µM | > 100 µM | 4.43 µM | 5.83 µM | 
15 | N#C/C(=C1\SCC(=O)N1c1ccccc1)c1nc2ccccc2[nH]1 |  | > 100 µM | > 100 µM | > 100 µM | > 100 µM | > 100 µM | > 100 µM | > 100 µM |  |  |  |  |  |  | > 100 µM |  | > 100 µM |  |  | 
16 | COC(=O)CCC(NC(=S)N/N=C(\C)c1ccc[nH]1)C(=O)OC (stereo not drawn) |  | > 100 µM | > 100 µM | > 100 µM | > 100 µM | > 100 µM | > 100 µM | > 100 µM |  |  |  |  |  |  | > 100 µM |  | > 100 µM |  |  | 
17 | O=c1cccccc1[O-].O=c1cccccc1[O-].O=c1cccccc1[O-].[Eu+3] |  | > 100 µM | > 100 µM | > 100 µM | > 100 µM | 99.6 µM | 63.8 µM | 76.7 µM |  |  |  |  |  |  | 73.9 µM |  | 48.1 µM |  |  | 
18 | Cc1cn2c(/C=C3/C(=O)Nc4c3ccc3ccccc43)c(C(F)(F)F)nc2s1 |  | > 100 µM | > 100 µM |  | > 100 µM | > 100 µM | > 100 µM | > 100 µM |  | 1.18 µM | 1.97 µM | 1.03 µM | > 100 µM | 2.24 µM | 8.35 µM | 0.381 µM | 10.2 µM | 4.65 µM | 2.19 µM | 

From PubChem BioAssay (NCI)
